Reference: US7622469B2, “2,4-diamino-1,3,5-triazine derivatives” (Hamari Chemicals, Ltd., priority 2002, dated 2009)
≈ marks a conversion by molar mass, not a printed value.

Key:
E. coli NIHJ JC-2 [1] = assay: Antibacterial activity test (MIC); format: cell-based; conditions: Mueller-Hinton Broth, 37° C., 20 to 24 hours
How it was run: (§1)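 Broth dilution MIC per Japanese Society of Chemotherapy method, in Mueller-Hinton Broth with inoculum of 10^5/ml from 16–20 h cultures at 37° C. Compound (methanol-dissolved) tested at 100 μg/ml and 2^n-fold (n=−10 to 1) twofold steps; MIC expressed in μg/ml.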

P. aeruginosa PAO-1 [2] = assay: Antibacterial activity test (MIC); format: cell-based; conditions: Mueller-Hinton Broth, 37° C., 20 to 24 hours
How it was run: as §1

S. aureus 209PJC [3] = assay: Antibacterial activity test (MIC); format: cell-based; conditions: Mueller-Hinton Broth, 37° C., 20 to 24 hours
How it was run: as §1

MRSA 97-115 [4] = assay: Bactericidal activity test (MBC, phenol coefficient measuring method); format: cell-based, methicillin-resistant Staphylococcus aureus
Protocol: (§2) As a test bacterium, the same bacteria species as those of the antibacterial activity test were used; as a medium to be used, a SCD medium (manufactured by Eiken Chemical Co., Ltd.) was used for pre-culture medium; and a heart infusion bouillon medium (manufactured by Eiken Chemical Co., Ltd.) was used as a medium for growing a live bacterium in a test solution after bactericidal treatment. One platinum loop of a test bacterium was inoculated into 20 ml of a medium, and static culture was carried out at 37° C. for 18 to 20 hours, and the cells were adjusted with a sterilized physiological saline to 1×10^7/ml, which was used as a test bacterium solution.
(§3) Then, a solution of each compound in methanol was subjected to ½ stepwise dilution with sterilized water, each 5 ml was dispensed into a test tube, 0.5 ml of the previously prepared test bacterium solution was added thereto, and the mixture was blended well. After 1 minute, 3 minutes and 5 minutes has passed, 5 μl of the test solution was collected and inoculated into 2 ml of a heart infusion bouillon medium, this was cultured at 37° C. for 40 to 48 hours, and the presence or absence of growth of a bacterium was determined. A test was performed three times, a minimum concentration at which growth of a bacterium was not recognized two or more times was adopted as a minimal bactericidal concentration (MBC value).
(§4) Numerical values in Tables represent MBC expressed in μg/ml unit.

MRSA 97-115 [5] = assay: Antibacterial activity test (MIC); format: cell-based, methicillin-resistant Staphylococcus aureus; conditions: Mueller-Hinton Broth, 37° C., 20 to 24 hours
How it was run: as §1

E. coli NIHJ JC-2 [6] = assay: Bactericidal activity test (MBC, phenol coefficient measuring method); format: cell-based
Protocol: as §2, §3, §4

P. aeruginosa PAO-1 [7] = assay: as above; format: cell-based
Protocol: as §2, §3, §4

S. aureus 209PJC [8] = assay: as above; format: cell-based
Protocol: as §2, §3, §4

| SMILES | minimal inhibitory concentration (MIC) (E. coli NIHJ JC-2 [1]) [µg/mL] | minimal inhibitory concentration (MIC) (P. aeruginosa PAO-1 [2]) [µg/mL] | minimal inhibitory concentration (MIC) (S. aureus 209PJC [3]) [µg/mL] | minimal bactericidal concentration (MBC) (MRSA 97-115 [4]; 1 min) [µg/mL] | minimal bactericidal concentration (MBC) (MRSA 97-115 [4]; 3 min) [µg/mL] | minimal bactericidal concentration (MBC) (MRSA 97-115 [4]; 5 min) [µg/mL] | minimal inhibitory concentration (MIC) (MRSA 97-115 [5]) [µg/mL] | minimal bactericidal concentration (MBC) (E. coli NIHJ JC-2 [6]; 1 min) [µg/mL] | minimal bactericidal concentration (MBC) (E. coli NIHJ JC-2 [6]; 3 min) [µg/mL] | minimal bactericidal concentration (MBC) (E. coli NIHJ JC-2 [6]; 5 min) [µg/mL] | minimal bactericidal concentration (MBC) (P. aeruginosa PAO-1 [7]; 1 min) [µg/mL] | minimal bactericidal concentration (MBC) (P. aeruginosa PAO-1 [7]; 3 min) [µg/mL] | minimal bactericidal concentration (MBC) (P. aeruginosa PAO-1 [7]; 5 min) [µg/mL] | minimal bactericidal concentration (MBC) (S. aureus 209PJC [8]; 1 min) [µg/mL] | minimal bactericidal concentration (MBC) (S. aureus 209PJC [8]; 3 min) [µg/mL] | minimal bactericidal concentration (MBC) (S. aureus 209PJC [8]; 5 min) [µg/mL] |
| --- | --- | --- | --- | --- | --- | --- | --- | --- | --- | --- | --- | --- | --- | --- | --- | --- |
| CCCCCCCCCCC1N=C(N)N=C(N)N1c1ccc(F)c(F)c1F.Cl (centres unmarked) [compound 31] | 12.5 | 25 | 1.6 | 25 | 12.5 | 6.3 | 3.1 | 12.5 | 12.5 | 6.3 | 12.5 | 12.5 | 6.3 | 25 | 12.5 | 12.5 |
| CCCCCCCCNC1=NC(C)(C)N=C(NCc2ccc(C)cc2)N1 [compound 37] | 12.5 (≈ 35 µM) | 25 (≈ 69.9 µM) | 0.8 (≈ 2.24 µM) | 25 (≈ 69.9 µM) | 25 (≈ 69.9 µM) | 12.5 (≈ 35 µM) | 1.6 (≈ 4.47 µM) | 12.5 (≈ 35 µM) | 6.3 (≈ 17.6 µM) | 3.1 (≈ 8.67 µM) | 3.1 (≈ 8.67 µM) | 3.1 (≈ 8.67 µM) | 3.1 (≈ 8.67 µM) | 12.5 (≈ 35 µM) | 6.3 (≈ 17.6 µM) | 6.3 (≈ 17.6 µM) |
| Br.CCCCCCCCCNC1=NC(C)(C)N=C(NCc2ccccc2)N1 [compound 49] | 12.5 | 25 | 0.4 | 25 | 12.5 | 12.5 | 0.8 | 12.5 | 6.3 | 3.1 | 12.5 | 3.1 | 3.1 | 12.5 | 6.3 | 6.3 |
| CC(=O)O.CCCCCCCCCNC1=NC(C)(C)N=C(NCCc2ccccc2)N1 [compound 56] | 12.5 | 12.5 | 0.4 | 25 | 12.5 | 6.3 | 0.8 | 12.5 | 3.1 | 3.1 | 12.5 | 3.1 | 1.6 | 25 | 12.5 | 6.3 |
| CC(=O)O.CCCCCCCCNC1=NC(C)(C)N=C(NCC2CCCCC2)N1 [compound 65] | 25 | 50 | 0.8 | 25 | 12.5 | 12.5 | 0.8 | 3.1 | 1.6 | 1.6 | 3.1 | 1.6 | 1.6 | 12.5 | 3.1 | 3.1 |
| CC(=O)O.CCCCCCCNC1=NC(C)(C)N=C(NCCCCCCC)N1 [compound 69] | 12.5 | 50 | 0.8 | 25 | 25 | 12.5 | 0.8 | 6.3 | 3.1 | 3.1 | 3.1 | 1.6 | 1.6 | 6.3 | 6.3 | 3.1 |
| CCCCCCCCCCCCCCNC1=NC(C)(C)N=C(N)N1.Cl [compound 72] | 25 | 25 | 0.8 | 25 | 12.5 | 12.5 | 1.6 | 6.3 | 3.1 | 3.1 | 3.1 | 1.6 | 1.6 | 3.1 | 1.6 | 1.6 |
| CC(=O)O.CCCCCCCCNC1=NC(C)(C)N=C(Nc2cnc3ccccc3c2)N1 [compound 82] | 25 | 50 | 0.8 | 50 | 25 | 25 | 1.6 | 6.3 | 6.3 | 3.1 | 12.5 | 12.5 | 6.3 | 12.5 | 6.3 | 6.3 |
